Patent US4187216A, “Dipeptide derivatives” (Hoffmann-La Roche Inc., priority 1976, dated 1980)
pIC50, pKi: −log10 of the molar value. Counter-ions that a name gives are not always drawn. Residues, ends and D or L forms follow the SMILES beside them. *: point of attachment. pNA = O=[N+]([O-])c1ccc(N*)cc1; Tos = Cc1ccc(S(=O)(=O)*)cc1; Hexanoyl = CCCCCC(=O)*; Propionyl = CCC(=O)*; Tfa = O=C(C(F)(F)F)*; NHPh = c1ccc(N*)cc1

Each molecule was assayed against T1, human granulocyte elastase (Homo sapiens, UniProt P08246) (assay: in vitro elastase inhibition, test method of Visser and Blout, human granulocyte elastase as enzyme). Settings: read-out: I50, concentration which gives 50% inhibition of the human granulocyte elastase.
T1 sequence (P08246 30-267): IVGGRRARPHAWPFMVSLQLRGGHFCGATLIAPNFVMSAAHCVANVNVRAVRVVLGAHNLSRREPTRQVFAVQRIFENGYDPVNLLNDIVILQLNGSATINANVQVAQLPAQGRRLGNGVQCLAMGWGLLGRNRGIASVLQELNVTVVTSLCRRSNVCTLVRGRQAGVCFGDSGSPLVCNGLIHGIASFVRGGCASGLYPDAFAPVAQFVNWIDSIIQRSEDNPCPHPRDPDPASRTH
Format: biochemical
Text: Acta 268 (1972) 257, using human granulocyte elastase as the enzyme. The results obtained with representative dipeptide derivatives of formula I in this test are given in Table I hereinafter, the I50 being the concentration in millimoles per liter which gives 50% inhibition of the human granulocyte elastase: […]

SMILES | pIC50
CCCCCC(=O)N[C@@H](C)C(=O)N1CCC[C@H]1C(=O)Nc1ccccc1 [(N-Hexanoyl-L-alanyl-L-proline) anilide, N-Hexanoyl-L-alanyl-L-proline anilide] (Hexanoyl-Ala-Pro-NHPh) | 3.10
C[C@H](NS(=O)(=O)C12CC3CC(CC(C3)C1)C2)C(=O)N1CCC[C@H]1C(=O)Nc1ccccc1 [N-(1-Adamantylsulphonyl)-L-alanyl-L-proline anilide] | 5.15
Cc1ccc(S(=O)(=O)N[C@@H](C)C(=O)N2CCC[C@H]2C(=O)Nc2ccccc2)cc1 [N-(p-Toluenesulphonyl)-L-alanyl-L-proline anilide] (Tos-Ala-Pro-NHPh) | 4.22
C[C@H](NC(=O)C12CC3CC(CC(C3)C1)C2)C(=O)N1CCC[C@H]1C(=O)Nc1ccccc1 [N-(1-Adamantylcarbonyl)-L-alanyl-L-proline anilide] | 3.22
CCCCCNC(=O)[C@@H]1CCCN1C(=O)[C@H](C)NC(=O)OCc1ccccc1 [N-Benzyloxycarbonyl-L-alanyl-L-proline n-pentylamide] | ~2.30
C[C@H](NC(=O)OCc1ccccc1)C(=O)N1CCC[C@H]1C(=O)NC1CCCCC1 [N-Benzyloxycarbonyl-L-alanyl-L-proline cyclohexylamide] | 3.00
C[C@H](NC(=O)CC12CC3CC(CC(C3)C1)C2)C(=O)N1CCC[C@H]1C(=O)Nc1ccccc1 [N-(1-Adamantylacetyl)-L-alanyl-L-proline anilide] | 4.22

These molecules were tested against porcine pancreatic elastase (Sus scrofa, UniProt P00772) (assay: in vitro elastase inhibition, test method of Visser and Blout, porcine pancreatic elastase as enzyme). Settings: read-out: Ki, inhibitor constant.
porcine pancreatic elastase, sequence (P00772 27-266): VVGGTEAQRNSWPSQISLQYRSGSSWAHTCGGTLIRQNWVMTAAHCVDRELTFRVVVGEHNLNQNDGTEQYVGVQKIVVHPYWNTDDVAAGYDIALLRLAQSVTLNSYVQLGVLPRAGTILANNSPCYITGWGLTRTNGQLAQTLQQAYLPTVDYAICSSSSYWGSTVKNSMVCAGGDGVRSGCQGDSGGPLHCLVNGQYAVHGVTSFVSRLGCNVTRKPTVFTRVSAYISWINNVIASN
Format: biochemical

SMILES | pKi
CCC(=O)N[C@@H](C)C(=O)N1CCC[C@H]1C(=O)NC1CCCCC1 [N-Propionyl-L-alanyl-L-proline cyclohexylamide] | 4.70
CCC(=O)N[C@@H](C)C(=O)N1CCC[C@H]1C(=O)Nc1ccc([N+](=O)[O-])cc1 [N-Propionyl-L-alanyl-L-proline 4-nitroanilide] (Propionyl-Ala-Pro-pNA) | 4.59
C[C@H](NC(=O)C(F)(F)F)C(=O)N1CCC[C@H]1C(=O)Nc1ccccc1 [N-Trifluoroacetyl-L-alanyl-L-proline anilide] (Tfa-Ala-Pro-NHPh) | 5.85
CCC(=O)N[C@@H](C)C(=O)N1CCC[C@H]1C(=O)Nc1ccccc1 [N-Propionyl-L-alanyl-L-proline anilide] (Propionyl-Ala-Pro-NHPh) | 4.40
CCC(=O)N[C@@H](C)C(=O)N[C@@H](C)C(=O)Nc1ccccc1 [N-Propionyl-L-alanyl-L-alanine anilide] (Propionyl-Ala-Ala-NHPh) | 4.40
